Data published in publication PMC9045277, “Quercetin Reduces the Virulence of S. aureus by Targeting ClpP to Protect Mice from MRSA-Induced Lethal Pneumonia” (Microbiology Spectrum, 2022).
In brackets after ≈: the same amount, converted by molar mass.

Key:
ClpP [1] = target: T1, ClpP (Staphylococcus aureus, UniProt Q2G036); assay: biochemical; settings: read-out: Relative inhibition rate (%)
T1 construct: pET28a-clpP, purified from E. coli BL21(DE3)
Protocol: This property was exploited to screen the available laboratory library of small molecules for ClpP inhibitors. First, 10 μM ClpP and 64 μg/mL of the small molecule compound were added to a black opaque 96-well plate containing 100 μL of ClpP buffer (100 mM HEPES,100 mM NaCl) and incubated for 1 h at room temperature. Afterward, 100 μM Suc-LeuTyr-AMC (Cat number S1153, Sigma-Aldrich, St. Louis, MO, USA) was added to 96-well plates and incubated for 30 min at 32°C. Finally, the fluorescence values were detected by Infinite M200 (360 nm excitation/465 nm emission). […] Since the fluorescent substrate Suc-LY-AMC can be used to detect the activity of ClpP protein, we screened a library of natural products available in our laboratory.

S. aureus USA300 (MRSA) = tested on: T2, S. aureus USA300 (MRSA); assay: microbe, parasite or virus in culture; parameters: MIC, growth inhibition of MRSA USA300; settings: Staphylococcus aureus, read-out: MIC (μg/mL)
T2 construct: USA300

ClpP [2] = target: T1, ClpP; assay: ClpP peptidase assay with fluorescent substrate Suc-LY-AMC (positive-control inhibitor); assay type: biochemical
ClpP [3] = target: T1, ClpP; assay: LSPR (OpenSPR) with immobilized ClpP; supported by TSA, CETSA in lysate, and Suc-LY-AMC inhibition (IC50 […]); assay type: binding
[4] = target: T3, 6×His-ClpX protein of S. aureus (S. aureus, UniProt Q2FXQ7 1-420); assay: pull-down; 6×His-ClpX and label-free ClpP mixed with 2 mM ATPγS (with DMSO, quercetin or ADEP4), overnight at 4°C; passed through Ni-NTA, washed with binding buffer (40 mM Tris, 200 mM NaCl, pH 8.5), eluted with 400 mM imidazole; SDS-PAGE; settings: both partners purified
T3 construct: source: E. coli, purified
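For Relative inhibition rate (%) in this document: ClpP peptidase activity measured as fluorescence (ex 360 nm, em 465 nm) from cleavage of Suc-LY-AMC substrate at 100 µM, 30 min at 32°C.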

T3 sequence (Q2FXQ7 whole entry): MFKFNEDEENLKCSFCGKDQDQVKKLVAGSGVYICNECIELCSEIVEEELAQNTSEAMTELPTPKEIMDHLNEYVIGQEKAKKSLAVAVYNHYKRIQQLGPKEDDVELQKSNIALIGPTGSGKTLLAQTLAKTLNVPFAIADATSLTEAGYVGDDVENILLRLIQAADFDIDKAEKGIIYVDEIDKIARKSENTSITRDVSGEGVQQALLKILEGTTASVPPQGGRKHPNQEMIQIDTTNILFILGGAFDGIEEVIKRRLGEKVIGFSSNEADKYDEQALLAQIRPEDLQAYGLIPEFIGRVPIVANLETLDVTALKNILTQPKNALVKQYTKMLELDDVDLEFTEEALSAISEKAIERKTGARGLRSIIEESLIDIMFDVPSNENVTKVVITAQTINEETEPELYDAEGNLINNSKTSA

## CC1=C[C@H](O)CC(C)(C)[C@H]1/C=C/C(C)=C/C=C/C(C)=C/C=C/C=C(C)/C=C/C=C(C)/C=C/C1=C(C)C[C@@H](O)CC1(C)C [Lutein]
ClpP [1]
  inhibition at 64 µg/mL: 1.4 ± 0.52%

## COc1ccc(-c2cc(=O)c3c(O)c(OC)c(O)c(OC)c3o2)cc1 [Lysionotin]
ClpP [1]
  inhibition at 64 µg/mL: 59.1 ± 1.55%

## O=C1C[C@@H](c2ccc(O)cc2)Oc2cc(O)cc(O)c21 [Naringenin]
ClpP [1]
  inhibition at 64 µg/mL: 8.2 ± 0.24%

## C[C@@H]1O[C@@H](O[C@H]2[C@H](Oc3cc(O)c(C(=O)CCc4ccc(O)cc4)c(O)c3)O[C@H](CO)[C@@H](O)[C@@H]2O)[C@H](O)[C@H](O)[C@H]1O [Naringin dihydrochalcone]
ClpP [1]
  inhibition at 64 µg/mL: 20.6 ± 0.51%

## C=C(C)[C@H](CC=C(C)C)Cc1c(O)cc(O)c2c1O[C@H](c1ccc(O)cc1O)CC2=O [Nor-kurarinone]
ClpP [1]
  inhibition at 64 µg/mL: 83.3 ± 0.02%
S. aureus USA300 (MRSA)
  MIC: 2 µg/mL (≈ 4.71 µM)

## O=c1cc(-c2ccc(O)c(O)c2)oc2c([C@@H]3O[C@H](CO)[C@@H](O)[C@H](O)[C@H]3O)c(O)cc(O)c12 [Orientin]
ClpP [1]
  inhibition at 64 µg/mL: 61.4 ± 1.24%

## COc1ccc(C(C)=O)c(O)c1 [Paeonol]
ClpP [1]
  inhibition at 64 µg/mL: 26.7 ± 4.31%

## COc1ccc(-c2cc(=O)c3c(O)c(OC)c(O[C@@H]4O[C@H](CO[C@@H]5O[C@@H](C)[C@H](O)[C@@H](O)[C@H]5O)[C@@H](O)[C@H](O)[C@H]4O)cc3o2)cc1 [Pectolinarin]
ClpP [1]
  inhibition at 64 µg/mL: 28.3 ± 1.37%

## COc1cc2c(cc1O)C[C@H]1c3cc(O)c(OC)cc3CC[N+]1(C)C2 (stereo partly shown) [Phellodendrine chloride]
ClpP [1]
  inhibition at 64 µg/mL: 10.2 ± 2.67%

## O=C(CCc1ccc(O)cc1)c1c(O)cc(O)cc1O[C@@H]1O[C@H](CO)[C@@H](O)[C@H](O)[C@H]1O [Phlorizin]
ClpP [1]
  inhibition at 64 µg/mL: 5.3 ± 0.71%

## O=C1C[C@@H](c2ccccc2)Oc2cc(O)cc(O)c21 [Pinocembrin]
ClpP [1]
  inhibition at 64 µg/mL: 33.7 ± 0.68%

## C/C=C(/C)C(=O)O[C@H]1[C@@H](OC(C)=O)c2c(ccc3ccc(=O)oc23)OC1(C)C [Praeruptorin A]
ClpP [1]
  inhibition at 64 µg/mL: 37.8 ± 3.15%

## COc1ccc(-c2oc3c(OC)c(O)cc(O)c3c(=O)c2O)cc1 [Prudomestin]
ClpP [1]
  inhibition at 64 µg/mL: 54.2 ± 4.67%

## O=C1c2ccccc2C(=O)c2c(O)c(O)cc(O)c21 [Purpurin]
ClpP [1]
  inhibition at 64 µg/mL: 11.6 ± 2.51%

## COc1ccc(/C=C/c2cc(O)cc(O)c2)cc1O [Rhapontigenin]
ClpP [1]
  inhibition at 64 µg/mL: 42.2 ± 2.89%

## C[C@@H]1O[C@@H](O[C@H]2[C@H](Oc3cc(O)c4c(=O)cc(-c5ccc(O)cc5)oc4c3)O[C@H](CO)[C@@H](O)[C@@H]2O)[C@H](O)[C@H](O)[C@H]1O [Rhoifolin]
ClpP [1]
  inhibition at 64 µg/mL: 46.7 ± 1.3%

## COc1cc(O)c2c(c1)O[C@H](c1ccc(O)cc1)CC2=O [Sakuranetin]
ClpP [1]
  inhibition at 64 µg/mL: 3.9 ± 1.2%

## C[C@H]1CC[C@@]2(OC1)O[C@H]1C[C@H]3[C@@H]4CC[C@@H]5C[C@@H](O)CC[C@]5(C)[C@H]4CC[C@]3(C)[C@H]1[C@@H]2C [Sarsasapogenin]
ClpP [1]
  inhibition at 64 µg/mL: 7.8 ± 0.96%

## CC(C)=CC[C@@H](O)C1=CC(=O)c2c(O)ccc(O)c2C1=O [Shikonin]
ClpP [1]
  inhibition at 64 µg/mL: 13.4 ± 1.54%

## COc1cc([C@@H]2Oc3c(O)cc([C@H]4Oc5cc(O)cc(O)c5C(=O)[C@@H]4O)cc3[C@H]2CO)ccc1O [Silicristin]
ClpP [1]
  inhibition at 64 µg/mL: 9.3 ± 0.83%

## C=CC/C(=N/OS(=O)(=O)O)S[C@@H]1O[C@H](CO)[C@@H](O)[C@H](O)[C@H]1O [Sinigrin]
ClpP [1]
  inhibition at 64 µg/mL: 20.1 ± 4.17%

## COc1ccc(-c2cc(=O)c3c(OC)c(OC)c(OC)c(OC)c3o2)cc1 [Tangeretin]
ClpP [1]
  inhibition at 64 µg/mL: 41.2 ± 1.53%

## Cc1coc2c1C(=O)C(=O)c1c-2ccc2c(C)cccc12 [Tanshinone I]
ClpP [1]
  inhibition at 64 µg/mL: 12.3 ± 1.41%

## O=C1c2c(O)cc(O)cc2O[C@H](c2ccc(O)c(O)c2)[C@H]1O [Taxifolin]
ClpP [1]
  inhibition at 64 µg/mL: 17.2 ± 1.2%

## COc1cc(O)c2c(=O)cc(-c3ccccc3)oc2c1 [Tectochrysin]
ClpP [1]
  inhibition at 64 µg/mL: 7.1 ± 0.26%

## O=C(CCCCc1ccc2c(c1)OCO2)N1CCCCC1 [Tetrahydropiperine]
ClpP [1]
  inhibition at 64 µg/mL: 24.5 ± 3.67%

## C[C@@H]1CC[C@@]2(OC1)O[C@H]1C[C@H]3[C@@H]4CC[C@H]5C[C@@H](O)CC[C@]5(C)[C@H]4CC[C@]3(C)[C@H]1[C@@H]2C [Tigogenin]
ClpP [1]
  inhibition at 64 µg/mL: 12.3 ± 4.21%

## O=C(/C=C/c1ccc(O)cc1)OC[C@H]1O[C@@H](Oc2c(-c3ccc(O)cc3)oc3cc(O)cc(O)c3c2=O)[C@H](O)[C@@H](O)[C@@H]1O [Tiliroside]
ClpP [1]
  inhibition at 64 µg/mL: 3.6 ± 0.17%

## CC(C)c1ccc2c(c1O)CC[C@H]1C3=C(CC[C@]21C)C(=O)OC3 [Triptophenolide]
ClpP [1]
  inhibition at 64 µg/mL: 20.8 ± 0.61%

## COc1cc(-c2oc3cc(O)cc(O)c3c(=O)c2O[C@@H]2O[C@H](CO[C@@H]3O[C@@H](C)[C@H](O)[C@@H](O)[C@H]3O)[C@@H](O)[C@H](O)[C@H]2O[C@@H]2O[C@@H](C)[C@H](O)[C@@H](O)[C@H]2O)ccc1O [Typhaneoside]
ClpP [1]
  inhibition at 64 µg/mL: 29.7 ± 0.72%

## O=c1cc(-c2ccc(O)cc2)oc2c([C@@H]3O[C@H](CO)[C@@H](O)[C@H](O)[C@H]3O)c(O)c([C@@H]3O[C@H](CO)[C@@H](O)[C@H](O)[C@H]3O)c(O)c12 [Vicenin-2]
ClpP [1]
  inhibition at 64 µg/mL: 48.2 ± 2.26%

## COc1c(O)cc(O)c2c(=O)cc(-c3ccccc3)oc12 [Wogonin]
ClpP [1]
  inhibition at 64 µg/mL: 35.4 ± 2.11%

## C=C(C)[C@@H]1CCC(C)=C[C@H]1c1c(O)cc(CCCCC)cc1O [cannabidiol]
ClpP [1]
  inhibition at 64 µg/mL: 6.8 ± 2.41%

## CC(C)=CCc1c(O)ccc(C(=O)/C=C/c2ccc(O)cc2)c1O [isobavachalcone]
ClpP [1]
  inhibition at 64 µg/mL: 97.6 ± 0.26%
S. aureus USA300 (MRSA)
  MIC: 8 µg/mL (≈ 24.7 µM)

## CC(C)=CCc1c(-c2ccc(O)cc2O)oc2c([C@H]3C=C(C)C[C@@H](c4ccc(O)cc4O)[C@@H]3C(=O)c3ccc(O)cc3O)c(O)cc(O)c2c1=O [kuwanonG]
ClpP [1]
  inhibition at 64 µg/mL: 21.2 ± 2.56%

## O=C(O)[C@H]1O[C@@H](Oc2cc(O)c3c(=O)cc(-c4ccc(O)c(O)c4)oc3c2)[C@H](O)[C@@H](O)[C@@H]1O [luteolin-7-glucuronide]
ClpP [1]
  inhibition at 64 µg/mL: 47.1 ± 3.25%

## O=c1c(O)c(-c2cc(O)c(O)c(O)c2)oc2cc(O)cc(O)c12 [myricetin]
ClpP [2]
  ClpP peptidase assay with fluorescent substrate Suc-LY-AMC (positive-control inh): the inhibitory ability of quercetin and the positive-control myricetin on ClpP activity were the closest

## O=c1c(O)c(-c2ccc(O)c(O)c2)oc2cc(O)cc(O)c12 [quercetin]
ClpP [3]
  Kd: 197 nM
ClpP [1]
  inhibition at 64 µg/mL: 74.3 ± 2.67%
S. aureus USA300 (MRSA)
  MIC: 128 µg/mL (≈ 424 µM)

B1: Caseinolytic peptidase P (ClpP) of S. aureus, label-free (His tag excised) (enzyme)
chain: MNLIPTVIETTNRGERAYDIYSRLLKDRIIMLGSQIDDNVANSIVSQLLFLQAQDSEKDIYLYINSPGGSVTAGFAIYDTIQHIKPDVQTICIGMAASMGSFLLAAGAKGKRFALPNAEVMIHQPLGGAQGQATEIEIAANHILKTREKLNRILSERTGQSIEKIQKDTDRDNFLTAEEAKEYGLIDEVMVPETK
notes: also called casein hydrolase P; label-free ClpP protein; source: E. coli BL21 (DE3), pET28a-clpP, purified (His-Trap); copies: 14
[4]
  binding result: binds
